In patent publication US6653081B2, “Methods for monitoring antiretroviral therapy and guiding therapeutic decision in the treatment of HIV/AIDS” (ViroLogic, Inc., priority 2000, dated 2003):

Legend:
RTV-006782 = experiment: Phenotypic susceptibility assay, RTV-006782; type: cell-based, HIV; details: patient 006782; for decrease in susceptibility: V245T, I135T, E138A
Source text: (§1) The resistance test vectors containing a functional luciferase gene cassette were constructed and host cells were transfected with the resistance test vector DNA. The resistant test vectors contained patient-derived reverse transcriptase and protease sequences that were either susceptible or resistant to the antiretroviral agents, such as nucleoside reverse transcriptase inhibitors, (NRTIs) non-nucleoside reverse transcriptase inhibitors […] protease inhibitors. The resistance test vector viral particles produced by transfecting the resistance test vector DNA into host cells, either in the presence or absence of PRIs, were used to infect target host cells grown either in the absence of NRTIs or NNRTIs, or in the presence of increasing concentrations of the drug. The amount of luciferase activity produced in infected target host cells in the presence of varying concentrations of drug was compared to the amount of luciferase produced in infected target host cells in the absence of drug. “Drug resistance” was measured as the amount of drug required to inhibit by 50% the luciferase activity detected in the absence of drug (inhibitory concentration 50%, IC50). The IC50 values were determined by plotting percent drug inhibition vs. log10 drug concentration. Stimulation of viral replication was measured as the percent increase in luciferase activity detected when infection occurs in the presence of drug as compared to in the absence of drug.
(§2) Host cells were seeded in 10-cm-diameter dishes and were transfected several days after plating with resistance test vector plasmid DNA and the envelope expression vector. Transfections were performed using a calcium-phosphate precipitation procedure. The cell culture media containing the DNA precipitate was replaced with fresh medium, from one to 24 hours, after transfection. Cell culture media containing resistance test vector viral particles was harvested one to four days after transfection and was passed through a […] filter before being used to infect target host cells, or being stored at −80° C. HIV capsid protein (p24) levels in the harvested cell culture media were determined by an EIA method as described by the manufacturer (SAIC; Frederick, Md.). Before infection, target cells (293 and 293/T) were plated in cell culture media. Control infections were performed using cell culture media from mock transfections (no DNA) or transfections containing the resistance test vector plasmid DNA without the envelope expression plasmid. One to three or more days after infection, the media was removed and cell lysis buffer (Promega) was added to each well. Cell lysates were assayed for luciferase activity (FIG. 3). The inhibitory effect of the drug was determined using the following equation:
(§3) % luciferase inhibition=1−(RLUluc[drug]÷RLUluc)×100
(§4) where RLUluc [drug] is the Relative Light Unit of luciferase activity in infected cells in the presence of drug, and RLUluc is the Relative Light Unit of luciferase activity in infected cells in the absence of drug. IC50values were obtained from the sigmoidal curves that were generated from the data by plotting the percent inhibition of luciferase activity vs. the log10 drug concentration. The percent luciferase stimulation is the negative of the % inhibition calculated using the formula above.
A resistance test vector was constructed as described in Example 1 from a virus sample obtained from patient 006782. The prior and current treatment regimens are unknown. Isolation of viral RNA and RT/PCR was used to generate a patient derived segment (PDS) that comprised viral sequences coding for all of PR and aa 1-313 of RT. The PDS were inserted into an indicator gene viral vector to generate a resistance test vector designated RTV-006782. RTV-006782 was then tested in a phenotypic assay to determine accurately and quantitatively the level of susceptibility to a panel of anti-retroviral drugs. […]

[1] = system: RTV-1033-3/106V/227F/286T; experiment: Phenotypic susceptibility assay, RTV-1033-3/106V/227F/286T; type: cell-based, HIV; details: RTV-1033-3 with V106A, F227L and T286A reverted
Source text: as §1, §2, §3, §4
A resistance test vector containing all of the mutations present in RTV-1033-3 except for V106A, F227L and T286A (RTV-1033-3/106V/227F/286T) was constructed and tested using the phenotypic assay described earlier. The results were compared to those determined using the parent RTV-1033-3. We determined the pattern of phenotypic susceptibility to the NNRTIs, delavirdine, nevirapine and efavirenz, in the reverted vector, RTV-1033-3/106V/227F/286T.

RTV-1033-3/181C = experiment: Phenotypic susceptibility assay, RTV-1033-3/181C; type: cell-based, HIV; details: RTV-1033-3 plus Y181C
Source text: as §1
Host cells were seeded in 10-cm-diameter dishes and were transfected several days after plating with resistance test vector plasmid DNA and the envelope expression vector. Transfections were performed using a calcium-phosphate precipitation procedure. […] HIV capsid protein (p24) levels in the harvested cell culture media were determined by an EIA method as described by the manufacturer (SAIC; Frederick, Md.). […] The inhibitory effect of the drug was determined using the following equation: […]
where RLUluc [drug] is the Relative Light Unit of luciferase activity in infected cells in the presence of drug, and RLUluc is the Relative Light Unit of luciferase activity in infected cells in the absence of drug. […] The percent luciferase stimulation is the negative of the % inhibition calculated using the formula above.
A resistance test vector containing all of the mutations present in RTV-1033-3, in addition to Y181C (RTV-1033-3/181C) was constructed and tested using the phenotypic assay described earlier. The results were compared to those determined using the parent RTV-1033-3. We determined the pattern of phenotypic susceptibility to the NNRTIs, delavirdine, nevirapine and efavirenz, in the mutated vector, RTV-1033-3/181C.

[2] = system: Patient-derived resistance test vectors containing mutations at 241 in addition to other NNRTI-resistance mutations; experiment: Phenotypic susceptibility assay, patient-derived RTVs with mutations at 241; type: cell-based, HIV; details: 241 plus e.g. 101, 103, 106, 135, 138, 190
Source text: The resistance test vectors containing a functional luciferase gene cassette were constructed and host cells were transfected with the resistance test vector DNA. The resistant test vectors contained patient-derived reverse transcriptase and protease sequences that were either susceptible or resistant to the antiretroviral agents, such as nucleoside reverse transcriptase inhibitors, (NRTIs) non-nucleoside reverse transcriptase inhibitors (NRTIs) and protease inhibitors. […] The IC50 values were determined by plotting percent drug inhibition vs. log10 drug concentration. Stimulation of viral replication was measured as the percent increase in luciferase activity detected when infection occurs in the presence of drug as compared to in the absence of drug.
Host cells were seeded in 10-cm-diameter dishes and were transfected several days after plating with resistance test vector plasmid DNA and the envelope expression vector. […] HIV capsid protein (p24) levels in the harvested cell culture media were determined by an EIA method as described by the manufacturer (SAIC; Frederick, Md.). […] The inhibitory effect of the drug was determined using the following equation: […]

codon 181 mutant HIV-1 = details: cited from earlier work
viral load = experiment: Viral load measurements in patient (Example 14); type: in vivo
P236L substitution RT = P236L substitution RT (Human immunodeficiency virus type 1 group M subtype B, UniProt P04585, P823L); details: cited from earlier work

SMILES | drug-dependent stimulation of viral replication (RTV-006782) | decrease in susceptibility (RTV-006782) | drug-dependent stimulation of viral replication [1] | reductions in susceptibility compared to wild type control RTV [1] | reduction in susceptibility compared to wild type control RTV (RTV-1033-3/181C) | reductions in susceptibility [2] | drug-dependent stimulation of viral replication (RTV-1033-3/181C) | susceptibility / activity in the presence of the Y181C mutation (codon 181 mutant HIV-1) | viral load after removal of nevirapine from the regimen (viral load; patient on d4T, nevirapine, nelfinavir, saquinavir, baseline ~1,200,000 copies/ml) | reduction in viral load after removal of nevirapine from the regimen (viral load; same patient) | reduction in sensitivity (codon 181 mutant HIV-1; Y181C mutation) | reduction of the IC50 (P236L substitution RT)
CC(C)Nc1cccnc1N1CCN(C(=O)c2cc3cc(NS(C)(=O)=O)ccc3[nH]2)CC1 [delavirdine] | ~70% | 18.5 fold | ~60% | 3 fold | > 250 fold |  |  |  |  |  |  | 
O=C1Nc2ccc(Cl)cc2[C@@](C#CC2CC2)(C(F)(F)F)O1 [efavirenz] | ~25% | 5 fold | ~50% | 5 fold | > 450 fold | > 470 fold | ~100% | retains activity |  |  |  | 
Cc1ccnc2c1NC(=O)c1cccnc1N2C1CC1 [nevirapine] | ~60% | 8 fold | ~70% | 6 fold | > 600 fold | > 600 fold |  |  | < 300,000 copies/ml | 4 fold | 100 fold | 7- to 10 fold
